From patent EP4768484A1, “HETEROCYCLIC FUSED RING COMPOUND, AND COMPOSITION AND USE THEREOF” (Shenzhen TargetRx, Inc., priority 2023, dated 2025)

Legend:
Assay type in all cases: cell-based
Ba/F3 parental cells = assay: Cell growth inhibitory activity assay (CellTiter-Glo), Ba/F3 parental cells; settings: Mus musculus, BaF3, 72 h, CTG cell viability, read-out: IC50 Ba/F3 BCR-ABL1 Parental
In short: (§1)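 IC50 values come from nonlinear fitting of % inhibition against log concentration, with viability taken as ATP content by CellTiter-Glo. Parental Ba/F3 or Ba/F3 monoclonal lines expressing lentivirally introduced mutant BCR-ABL1 were dosed for 72 h; controls included 0.5% DMSO wells and a T0 plate.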

Ba/F3 BCR-ABL1 WT = molecular target: T1, Ba/F3 BCR-ABL1 WT (Homo sapiens, UniProt P00519+P11274); assay: Cell growth inhibitory activity assay (CellTiter-Glo), Ba/F3 BCR-ABL1 WT cells; settings: 72 h, CTG cell viability
T1 construct: BCR (N-terminal fusion partner of the oncoprotein); expressed in transfected cells; host or cells: Ba/F3 (lentiviral transduction, monoclonal line)
In short: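 Ba/F3 lines stably transduced by lentivirus with WT or mutant BCR-ABL1, alongside untransduced parental Ba/F3, were seeded and incubated overnight at 37 °C, 5% CO2, then exposed to serially diluted compound for 72 h. Viability was read as ATP by CellTiter-Glo luminescence against a day-of-dosing T0 plate; IC50 from four-parameter nonlinear fit.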

Ba/F3 BCR-ABL1 T315I = molecular target: T2, Ba/F3 BCR-ABL1 T315I (Homo sapiens, UniProt P00519+P11274, T315I); assay: Cell growth inhibitory activity assay (CellTiter-Glo), Ba/F3 BCR-ABL1 T315I cells; settings: 72 h, CTG cell viability
T2 construct: BCR (N-terminal fusion partner of the oncoprotein); expressed in transfected cells; host or cells: Ba/F3 (lentiviral transduction, monoclonal line)
In short: as §1

K562 cells = assay: Cell growth inhibitory activity assay (CellTiter-Glo), K562 cells; settings: Homo sapiens, 72 h, CTG cell viability
In short: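 K562 cells in logarithmic growth were counted, diluted and plated in 96-well plates, with medium-only blanks and a separate T0 plate read by CTG the following day. After overnight incubation, graded compound concentrations were added for 72 h, with 0.5% DMSO wells as growth controls. Luminescence was read on a Biotek cytation3.0, and IC50 came from nonlinear fitting in GraphPad Prism 7.0.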

Row | Structure (SMILES) | IC50 (Ba/F3 parental cells) [nM] | IC50 (Ba/F3 BCR-ABL1 WT) [nM] | IC50 (Ba/F3 BCR-ABL1 T315I) [nM] | IC50 (K562 cells) [nM]
1 | Cc1cc(C(F)(F)F)nc(-n2cc3c(n2)-c2cc(-c4cc(C(=O)Nc5ccc(OC(F)(F)Cl)cc5)cc5nc6n(c45)[C@H](C)COC6)cnc2C3)n1 [T-75, (R)-N-(4-(chlorodifluoromethoxy)phenyl)-4-methyl-6-(2-(4-methyl-6-(trifluoromethyl)pyrimidin-2-yl)-2,4-dihydropyrazolo[3',4':3,4]cyclopenta[1,2-b]pyridin-7-yl)-3,4-dihydro-1H-benzo[4,5]imidazo[2,1-c][1,4]oxazine-8-carboxamide] | > 1000 | ≤ 5 | ≤ 5 | ≤ 5
2 | COc1cnc(-n2cc3c(n2)-c2cc(-c4cc(C(=O)Nc5ccc(OC(F)(F)Cl)cc5)cc5nc6n(c45)[C@H](C)COC6)cnc2C3)nc1 [T-77, (R)-N-(4-(chlorodifluoromethoxy)phenyl)-6-(2-(5-methoxypyrimidin-2-yl)-2,4-dihydropyrazolo[3',4':3,4]cyclopenta[1,2-b]pyridin-7-yl)-4-methyl-3,4-dihydro-1H-benzo[4,5]imidazo[2,1-c][1,4]oxazine-8-carboxamide] | > 1000 | ≤ 5 | ≤ 5 | ≤ 5
3 | C[C@@H]1COCc2nc3cc(C(=O)Nc4ccc(OC(F)(F)Cl)cc4)cc(-c4cnc5c(c4)-c4nn(-c6ncc(C(F)(F)F)cn6)cc4C5)c3n21 [T-79, (R)-N-(4-(chlorodifluoromethoxy)phenyl)-4-methyl-6-(2-(5-(trifluoromethyl)pyrimidin-2-yl)-2,4-dihydropyrazolo[3',4':3,4]cyclopenta[1,2-b]pyridin-7-yl)-3,4-dihydro-1H-benzo[4,5]imidazo[2,1-c][1,4]oxazine-8-carboxamide] | > 1000 | ≤ 5 | ≤ 5 | ≤ 5
4 | C[C@@H]1COCc2nc3cc(C(=O)Nc4ccc(OC(F)(F)Cl)cc4)cc(-c4cnc5c(c4)-c4nn(-c6ncc(-c7ccccc7)cn6)cc4C5)c3n21 [T-80, (R)-N-(4-(chlorodifluoromethoxy)phenyl)-4-methyl-6-(2-(5-phenylpyrimidin-2-yl)-2,4-dihydropyrazolo[3',4':3,4]cyclopenta[1,2-b]pyridin-7-yl)-3,4-dihydro-1H-benzo[4,5]imidazo[2,1-c][1,4]oxazine-8-carboxamide] | > 1000 | ≤ 5 | ≤ 5 | ≤ 5
5 | C[C@@H]1COCc2nc3cc(C(=O)Nc4ccc(OC(F)(F)Cl)cc4)cc(-c4cnc5c(c4)-c4nn(-c6nccc(-c7ccccc7)n6)cc4C5)c3n21 [T-81, (R)-N-(4-(chlorodifluoromethoxy)phenyl)-4-methyl-6-(2-(4-phenyloyrimidin-2-yl)-2,4-dihydropyrazolo[3',4':3,4]cyclopenta[1,2-b]pyridin-7-yl)-3,4-dihydro-1H-benzo[4,5]imidazo[2,1-c][1,4]oxazine-8-carboxamide] | > 1000 | ≤ 5 | ≤ 5 | ≤ 5
6 | C[C@@H]1COCc2nc3cc(C(=O)Nc4ccc(OC(F)(F)Cl)cc4)cc(-c4cnc5c(c4)-c4c(cnn4-c4ncc6ccccc6n4)C5)c3n21 [T-82-A, (R)-N-(4-(chlorodifluoromethoxy)phenyl)-4-methyl-6-(1-(guinazolin-2-yl)-1,4-dihvdropyrazolo[3',4':3,4]cyclopenta[1,2-b]pyridin-7-yl)-3,4-dihydro-1H-benzo[4,5]imidazo[2,1-c][1,4]oxazine-8-carboxamide] | > 1000 | ≤ 5 | 5 to 50 | ≤ 5
7 | C[C@@H]1COCc2nc3cc(C(=O)Nc4ccc(OC(F)(F)Cl)cc4)cc(-c4cnc5c(c4)-c4nn(-c6ncc7ccccc7n6)cc4C5)c3n21 [T-82-B, (R)-N-(4-(chlorodifluoromethoxy)phenyl)-4-methyl-6-(2-(quinazolin-2-yl)-2,4-dihydropyrazolo[3',4':3,4]cyclopenta[1,2-b]pyridin-7-yl)-3,4-dihydro-1H-benzo[4,5]imidazo[2,1-c][1,4]oxazine-8-carboxamide] | > 1000 | ≤ 5 | ≤ 5 | ≤ 5
8 | C[C@@H]1COCc2nc3cc(C(=O)Nc4ccc(OC(F)(F)Cl)cc4)cc(-c4cnc5c(c4)-c4nn(-c6ncc7ccsc7n6)cc4C5)c3n21 [T-83, (R)-N-(4-(chlorodifluoromethoxy)phenyl)-4-methyl-6-(2-(thieno[2,3-d]pyrimidin-2-yl)-2,4-dihydropyrazolo[3',4':3,4]cyclopenta[1,2-b]pyridin-7-yl)-3,4-dihydro-1H-benzo[4,5]imidazo[2,1-c][1,4]oxazine-8-carboxamide] | > 1000 | ≤ 5 | ≤ 5 | ≤ 5
9 | C[C@@H]1COCc2nc3cc(C(=O)Nc4ccc(OC(F)(F)Cl)cc4)cc(-c4cnc5c(c4)-c4nn(-c6ncc7c(ccn7C)n6)cc4C5)c3n21 [T-84, (R)-N-(4-(chlorodifluoromethoxy)phenyl)-4-methyl-6-(2-(5-methyl-5H-pyrrolo[3,2-d]pyrimidin-2-yl)-2,4-dihydropyrazolo[3',4':3,4]cyclopenta[1,2-b]pyridin-7-yl)-3,4-dihydro-1H-benzo[4,5]imidazo[2,1-c][1,4]oxazine-8-carboxamide] | > 1000 | ≤ 5 | ≤ 5 | ≤ 5
10 | C[C@@H]1COCc2nc3cc(C(=O)Nc4ccc(OC(F)(F)Cl)cc4)cc(-c4cnc5c(c4)-c4nn(-c6ncc7ccn(C)c7n6)cc4C5)c3n21 [T-85, (R)-N-(4-(chlorodifluoromethoxy)phenyl)-4-methyl-6-(2-(7-methyl-7H-pyrrolo[2,3-d]pyrimidin-2-yl)-2,4-dihydropyrazolo[3',4':3,4]cyclopenta[1,2-b]pyridin-7-yl)-3,4-dihydro-1H-benzo[4,5]imidazo[2,1-c][1,4]oxazine-8-carboxamide] | > 1000 | ≤ 5 | ≤ 5 | ≤ 5
11 | C[C@@H]1COCc2nc3cc(C(=O)Nc4ccc(OC(F)(F)Cl)cc4)cc(-c4cnc5c(c4)-c4nn(-c6ncc7cccnc7n6)cc4C5)c3n21 [T-86, (R)-N-(4-(chlorodifluoromethoxy)phenyl)-4-methyl-6-(2-(pyrido[2,3-d]pyrimidin-2-yl)-2,4-dihydropyrazolo[3',4':3,4]cyclopenta[1,2-b]pyridin-7-yl)-3,4-dihydro-1H-benzo[4,5]imidazo[2,1-c][1,4]oxazine-8-carboxamide] | > 1000 | ≤ 5 | ≤ 5 | ≤ 5
12 | C[C@@H]1COCc2nc3cc(C(=O)Nc4ccc(OC(F)(F)Cl)cc4)cc(-c4cnc5c(c4)-c4nn(-c6nccc(-c7cccnc7)n6)cc4C5)c3n21 [T-87, (R)-N-(4-(chlorodifluoromethoxy)phenyl)-4-methyl-6-(2-(4-(pyridin-3-yl)pyrimidin-2-yl)-2,4-dihydropyrazolo[3',4':3,4]cyclopenta[1,2-b]pyridin-7-yl)-3,4-dihydro-1H-benzo[4,5]imidazo[2,1-c][1,4]oxazine-8-carboxamide] | > 1000 | ≤ 5 | ≤ 5 | ≤ 5
13 | C[C@@H]1COCc2nc3cc(C(=O)Nc4ccc(OC(F)(F)Cl)cc4)cc(-c4cnc5c(c4)-c4nn(-c6nccc(N7CCOCC7)n6)cc4C5)c3n21 [T-88, (R)-N-(4-(chlorodifluoromethoxy)phenyl)-4-methyl-6-(2-(4-morpholinopyrimidin-2-yl)-2,4-dihydropyrazolo[3',4':3,4]cyclopenta[1,2-b]pyridin-7-yl)-3,4-dihydro-1H-benzo[4,5]imidazo[2,1-c][1,4]oxazine-8-carboxamide] | > 1000 | ≤ 5 | ≤ 5 | ≤ 5
14 | C[C@@H]1COCc2nc3cc(C(=O)Nc4ccc(OC(F)(F)Cl)cc4)cc(-c4cnc5c(c4)-c4nn(-c6nccc(-c7ccc(F)cc7)n6)cc4C5)c3n21 [T-89, (R)-N-(4-(chlorodifluoromethoxy)phenyl)-6-(2-(4-(4-fluorophenyl)pyrimidin-2-yl)-2,4-dihydropyrazolo[3',4':3,4]cyclopenta[1,2-b]pyridin-7-yl)-4-methyl-3,4-dihydro-1H-benzo[4,5]imidazo[2,1-c][1,4]oxazine-8-carboxamide] | > 1000 | ≤ 5 | ≤ 5 | ≤ 5
15 | C[C@@H]1COCc2nc3cc(C(=O)Nc4ccc(OC(F)(F)Cl)cc4)cc(-c4cnc5c(c4)-c4nn(-c6nccc(-c7ccn(C)n7)n6)cc4C5)c3n21 [T-90, (R)-N-(4-(chlorodifluoromethoxy)phenyl)-4-methyl-6-(2-(4-(1-methyl-1H-oyrazol-3-yl)pyrimidin-2-yl)-2,4-dihydropyrazolo[3',4':3,4]cyclopenta[1,2-b]pyridin-7-yl)-3,4-dihydro-1H-benzo[4,5]imidazo[2,1-c][1,4]oxazine-8-carboxamide] | > 1000 | ≤ 5 | ≤ 5 | ≤ 5
16 | COc1ccc(-c2ccnc(-n3ncc4c3-c3cc(-c5cc(C(=O)Nc6ccc(OC(F)(F)Cl)cc6)cc6nc7n(c56)[C@H](C)COC7)cnc3C4)n2)cc1F [T-91-A, (R)-N-(4-(chlorodifluoromethoxy)phenyl)-6-(1-(4-(3-fluoro-4-methoxyphenyl)pyrimidin-2-yl)-1,4-dihydropyrazolo[3',4':3,4]cyclopenta[1,2-b]pyridin-7-yl)-4-methyl-3,4-dihydro-1H-benzo[4,5]imidazo[2,1-c][1,4]oxazine-8-carboxamide] | > 1000 | 5 to 50 | 50 to 1000 | ≤ 5
